Source: article PMC4456360, “A Recombinant Fungal Lectin for Labeling Truncated Glycans on Human Cancer Cells” (PLoS ONE, 2015)

Key:
A549 cells = assay: Flow cytometry, lectin binding to A549 cells (glycosylation inhibitors, glycosidases); type: cell-based, human; details: for Percentage of inhibition of MAH binding (mean fluorescence intensity): MAH 5 μg ml^-1; for Percentage of inhibition of rPVL binding (mean fluorescence intensity): biotinylated rPVL 1 μg ml^-1
HBEC-3KT cell line = type: cell-based, human
[1] = system: glandular compartment of the stomach and small intestine; assay: Labeling of healthy tissues by biotinylated rPVL; details: 100 mM GlcNAc
Experimental: Ethanol-fixed human trachea, esophagus, duodenal junction, jejunum, colon, pancreas, liver, ovary, uterus and vagina samples were obtained from organ donors. 18 tissue samples from 10 different individuals were used to prepare a tissue microarray (TMA) of healthy tissues.
The tissue sections were deparaffinized, then endogenous peroxidases were blocked by incubating the sections with PBS containing 3% hydrogen peroxide (v/v), for 5 mn. The sections were then blocked with BSA 5% (w/v) for 30 min at room temperature, followed by incubation with 0,7–1 μg ml^-1 biotinylated rPVL 1h at room temperature (Ethanol-fixed sections) or 2 μg ml^-1 of biotinylated rPVL in PBS at 4°C for 18h (for formalin-fixed sections). After washing the sections twice with PBS, an indirect biotin-streptavidin system and DAB (Ventana Medical Systems) or AEC (Vector laboratories) detection kits were used according to the manufacturer’s instructions. The developed slides were washed twice with PBS and counterstained with hematoxylin. After washing with water, the sections were dehydrated and mounted. Sections were observed under a BX41 microscope equipped with a DP-70 digital camera system (Olympus, Tokyo, Japan) or imaged with a NanoZoomer slide-scanner (Hamamatsu, Hamamatsu City).

M119 = system: M119; set-up: key to the marks not given beside the values; details: M119, Melanoma

For CC(=O)OC1O[C@@H](C)[C@@H](OC(C)=O)[C@@H](OC(C)=O)[C@@H]1F (stereo partly shown) [2-FF, 2-fluoro-peracetyl fucose], the “Percentage of inhibition of MAH binding (mean fluorescence intensity)” value (A549 cells; A549 cells grown 4 days with 400 μM 2-Fluoro-Fucose, listed as 2F-fucose) was “did not affect” and the “Percentage of inhibition of rPVL binding (mean fluorescence intensity)” value (A549 cells; listed as 2F-fucose) was “did not affect”.
In the case of CC(=O)N[C@@H]1[C@@H](O)[C@H](O)[C@@H](CO)O[C@H]1O [GlcNAc, N-acetylglucosamine], the “inhibition of rPVL binding by GlcNAc (in words)” value (HBEC-3KT cell line) was “complete inhibition”, the “inhibition of rPVL staining by GlcNAc (in words)” value [1] was “partial inhibition” and the “Inhibtion by GlcNac (of PVL staining)” value (M119) was “++”.
In the case of “3-fluoro-peracetyl-neuraminic acid [3F-NeuAc]”, the “Percentage of inhibition of MAH binding (mean fluorescence intensity)” value (A549 cells; A549 cells grown 4 days with 100 μM Fluoro-Neu5Ac) was 75% and the “Percentage of inhibition of rPVL binding (mean fluorescence intensity)” value (A549 cells) was 59%.
